Results taken from patent USRE45612E1, “Corrosion inhibitor composition applicable for aluminum and steel protection and procedure” (MD FIFTH WARD PROPERTIES, INC., priority 2001, dated 2015).

How the values were obtained:
[1] = Salt spray exposure (ASTM B-117) of scribed aircraft primers containing the inhibitor pigment; settings: 2000 hours salt spray, scribe area
Procedure: The test was performed in a typical two component aircraft primer formulation, specifically recommended for aluminum protection. […] By visual examination of their physical state at the end of the test period, the coatings' corrosion inhibitor performance, considered directly proportional to the tested pigment components' corrosion inhibitive activity, was qualified. The scribed area was especially examined and the absence or presence of corrosion products, respectively, was interpreted as display of, or absence of, the respective corrosion inhibitor pigment's “throw power”. It will be apparent that the “throw power” is the discriminative characteristic of effective corrosion inhibitor pigments.

[2] = Solubility in water of the pigment; format: physicochemical
[3] = pH of saturated extract / leachate of the pigment; format: physicochemical
[4] = Salt spray exposure (ASTM B-117) of scribed coil primers, service life of coating; settings: on galvanized steel, relative to Sr-doped amorphous silica
Procedure: Steel Co.), at 0.6-0.7 mil dry film thickness, aged for at least 2 (two) days at room temperature, scribed and subsequently subjected to salt spray exposure (according to ASTM B-117). The scribes were applied in the typical cross form, and, in order to cut through the protective galvanic zinc coating from the area of the scribes, at appropriate depth. During salt spray exposure, the coatings' physical state was assessed periodically by visual examination. […] Service life of a coating is considered directly proportional to the related pigments' or additives' corrosion inhibitor performance, which is conveniently qualified by Ei, the Inhibitor Efficiency Index, defined as: […]

Sc1nnc(S)s1 [DMTD, 2,5-dimercapto-1,3,4 thiadiazole]
"Throw Power" Observed [1]: displayed throw power

[S-]c1nnc(S)s1.[S-]c1nnc(S)s1.[Zn+2] [Example 1, Zn(DMTD)2]
solubility in water, at 24° C. [2]: 0.4 g/L | pH (saturated extract) [3]: 4.5-5.0

C1CCC(NC2CCCCC2)CC1.S=c1[nH]c(=S)[nH]c(=S)[nH]1 [Example 7, Di-cyclohexyl mono-ammonium salt of trithiocyanuric acid]
extension of service life of coil coatings over Sr-doped amorphous silica [4]: 200%
